We go through two compounds from publication PMC11874377, “Fungal-derived methyldeoxaphomins target Plasmodium falciparum segregation through the inhibition of PfActin1” (Proceedings of the National Academy of Sciences of the …, 2025).

Where two headings read alike, the source gives them in different places.

One experiment deals with Dd2-Pol δ parent line. As to the kind of experiment: Resistant parasite phenotyping and cross resistance, SYBR green I EC50 assay, parent line. Type of experiment: cell-based, Plasmodium falciparum. The note with it: strain Dd2-Pol δ -parent, read-out: EC50 (mean ± SEM). The protocol:
(§1) Cloning by limiting dilution was then performed to isolate individual lines from the bulk population. Due to the multiple mutations identified in the first biological replicate, we isolated four clones from this bulk culture as compared to two clones each from the second and third replicates. These clones were phenotyped via a SYBR green I-based dose–response assay (Table 2 and Fig. 2B). […] The DNA of these clones was then extracted and subjected to whole-genome sequencing.
(§2) Resistant parasite phenotyping and cross resistance measurement
(§3) The EC50 assay was performed at 1% parasitemia, 1% hematocrit with SYBR green I in 96-well plates. The highest final concentration of the methyldeoxaphomin NPDG-F was set at 100 μM. Briefly, the compound was subjected to a 3-fold serial dilution with ten dilution points. Three technical replicates were set up at each dilution point. The Dd2-Pol δ parent line and the resistant parasites at 2% hematocrit and 1% parasitemia were added to the drug media at 1:1 ratio. The plate was incubated at 37°C for 72 hours in a chamber filled with a hypoxic gas mixture (3% oxygen, 5% carbon dioxide, and 92% nitrogen). After incubation, the cells were lysis with lysis buffer (20 mM Tris-HCL, 0.08% saponin, 5 mM EDTA, and 0.8% Triton X-100) containing SYBR green I (10,000X, Thermo Fisher, cat # S7563) overnight. Fluorescence was measured at 485nm excitation and 530nm emission using a PHERAstar FSX plate reader (BMG Labtech, Germany). Dose response curves were graphed with Prism 9 Version 9.5.1.
3D structural analysis of the mutations and docking studies
The crystal structure of PfActin1 with accession number 6TU4 (resolution 2.60 Ang) (Vahokoski et al., 2022) was obtained from the Protein Data Bank (PDB). This structure of PfActin1 contains ligands Jasplakinolide and ADP with a coordinating magnesium ion.
Only chain A was used for the docking experiment. […] Schrodinger maestro software (Schrödinger, LLC) was used to build NPDG-F with the proper stereochemistry using the x-ray structure determined for analog NPDG-A (vide supra). […]

Experiment [1] concerns in vitro evolved NPDG-F-resistant Dd2-Pol δ clones (PfActin1 mutations). Nature of the experiment: Resistant parasite phenotyping and cross resistance, SYBR green I EC50 assay, NPDG-F-resistant clones. The class given is cell-based, Plasmodium falciparum. The settings on record: for EC50: read-out: EC50 (mean ± SEM). As to the method: as §1
To investigate whether NPDG-F has the same mode of action as cytochalasin D, we tested our clones for sensitivity to both cytochalasin D and jasplakinolide.
as §2
as §3, with “9.5.1. […]” for “9.5.1.”

In a further experiment the target is barbed end of F-actin. The note with it: read-out: binding affinity Kd; cited from earlier work.
For another experiment, the system named is P. falciparum. As to the kind of experiment: Isobologram assay with NPDG-F. Type of experiment: cell-based, Plasmodium falciparum. As to the method: To further explore the relationship of NPDG-F with established actin-interfering drugs, an isobologram study was performed (Fig. 3). NPDG-F was added in combination with four inhibtors known to interfere with actin polymerization including a formin inhibitor SMIFH2, cofilin inhibitor SZ-3, F-actin targeting compound jasplakinolide, and G-actin targeting latrunculin B. The frontline antimalarial DHA was also added as a nonactin inhibitor control. After dose–response curves were generated (Fig. 3A), the fractional inhibitory concentrations (FICs) of NPDG-F and the combination drug were calculated and graphed. […]
Plasmodium blood stage culture
Parasite culture in the Chakrabarti lab was maintained following a modified Trager and Jensen protocol (Trager & Jensen, 1976) as previously described (Lee et al., 2021) with RPMI 1640 with 25 mM HEPES pH 7.4, 26 mM NaHCO3, 15 mg/L hypoxanthine, 0.5% Albumax II, 25 mg/L gentamycin, and 2% dextrose. Parasites were grown with human A+ erythrocytes obtained from Florida OneBlood. Cultures were kept in an incubator with 5% […]
Antiplasmodial activity screening
SYBR Green I-based fluorescence assay was performed as previously described (Lee et al., 2021) following protocols by Smilkstein et. al. (Smilkstein et al., 2004). Asynchronous Dd2 parasites were added to serially diluted compounds and incubated for 72 h at 5% CO2, 95% air at 37°C. Plates were then frozen at -80°C, thawed, and incubated for one hour with 1x SYBR Green I in a lysis buffer (20 mM Tris-HCL, 0.08% saponin, 5 mM EDTA, and 0.8% Triton X-100). Fluorescence was then read on a Synergy Neo2 multimode reader (BioTek Winsooki, VT). Compound dose response curves and EC50 determination was performed using CDD Vault normalized to 10 µM CQ and vehicle […]
For isobologram assessment, inhibitors were tested using a 1:2 dilution with starting concentrations selected as 40 nM for DHA, 100 µM Latrunculin B, 100 µM SMIFH2, and 40 nM for jasplakinolide. These concentrations were selected to provide 2-3 points above […]
EC50s. The test inhibitor methyldeoxaphomin NPDG-F was then added in combination with the aforementioned inhibitors at concentrations ranging from 10 to 0.3125 µM. Dose-response curves were then generated for the available conditions where EC50s could be determined. The fractional inhibitor concentration of both compounds was then determined as described (Fivelman et al., 2004) for the available points and graphed on a scale of 0-1 also using Graphpad Prism version 10. […]

With `C=C1[C@@H](C)[C@H]2[C@H](Cc3ccccc3)NC(=O)[C@]23[C@H](OC(C)=O)/C=C/[C@@](C)(O)C(=O)[C@@H](C)C/C=C/[C@H]3[C@@H]1O` [Cytochalasin D, cytochalasin D], the 50% effective concentration (EC50) was determined as 17.3 ± 0.5 nM in the experiment with Dd2-Pol δ parent line (Plasmodium falciparum); 302 ± 8.8 nM in experiment [1] (Plasmodium falciparum, DD2, clone 1-C7, A171S (8%), A171V (92%), I290L); 317 ± 9.2 nM in experiment [1] (Plasmodium falciparum, DD2, clone 1-D6, A171S (3%), A171V (97%), I290L); 402 ± 7 nM in experiment [1] (Plasmodium falciparum, DD2, clone 1-D7, A171S (22%), A171V (78%), I290L); 367 ± 7.8 nM in experiment [1] (Plasmodium falciparum, DD2, clone 1-F3, A171S (4%), A171V (96%), I290L); 60.8 ± 0.8 nM in experiment [1] (Plasmodium falciparum, DD2, clone 2-C4, A136S). In addition, the EC50 in experiment [1] (Plasmodium falciparum, DD2, clone 2-F5, A136S) was determined as 71.3 ± 1.7 nM; in experiment [1] (Plasmodium falciparum, DD2, clone 3-C3, A136S) it was 66.4 ± 0.2 nM; in experiment [1] (Plasmodium falciparum, DD2, clone 3-C5, A136S), 73.2 ± 0.7 nM. Further, the “cross-resistance of NPDG-F-resistant clones” value in experiment [1] was “cross-resistant”. Further, the “average EC50 shift, clones from flasks 2 and 3” value in experiment [1] (A136S) came to 3.9 fold. Moreover, the “average EC50 shift, clones from flask 1” value in experiment [1] (A171V/S and I290L clones) was determined as 20 fold. For the same compound, the Fold change in experiment [1] (clone 1-C7 vs Dd2-Pol δ parent) was determined as 17.5; in experiment [1] (clone 1-D6 vs Dd2-Pol δ parent) it was 18.3; in experiment [1] (clone 1-D7 vs Dd2-Pol δ parent) it was 23.3; in experiment [1] (clone 1-F3 vs Dd2-Pol δ parent), 21.2; in experiment [1] (clone 2-C4 vs Dd2-Pol δ parent) it was 3.5; in experiment [1] (clone 2-F5 vs Dd2-Pol δ parent) it was 4.1. Besides, the Fold change in experiment [1] (clone 3-C3 vs Dd2-Pol δ parent) amounted to 3.8; in experiment [1] (clone 3-C5 vs Dd2-Pol δ parent), 4.2. Besides, the Kd on barbed end of F-actin is approximately 2 nM.
For the compound `C/C1=C\[C@H](C)C[C@H](C)OC(=O)C[C@H](c2ccc(O)cc2)NC(=O)[C@@H](Cc2c(Br)[nH]c3ccccc23)N(C)C(=O)[C@H](C)NC(=O)[C@@H](C)C1` [Jasplakinolide, jasplakinolide], the EC50 with Dd2-Pol δ parent line is 25.1 ± 1.4 nM; in experiment [1] (clone 1-C7, A171S (8%), A171V (92%), I290L), 25.2 ± 0.4 nM; in experiment [1] (clone 1-D6, A171S (3%), A171V (97%), I290L), 27.6 ± 4 nM; in experiment [1] (clone 1-D7, A171S (22%), A171V (78%), I290L), 25.9 ± 0.8 nM; in experiment [1] (clone 1-F3, A171S (4%), A171V (96%), I290L), 30.7 ± 3.2 nM; in experiment [1] (clone 2-C4, A136S), 22.4 nM. Besides, the EC50 was 25.1 ± 2.9 nM in experiment [1] (clone 2-F5, A136S); 24 nM in experiment [1] (clone 3-C3, A136S); 25.4 ± 2.1 nM in experiment [1] (clone 3-C5, A136S). In addition, the Fold change in experiment [1] (clone 1-C7 vs Dd2-Pol δ parent) was found to be 1.0; in experiment [1] (clone 1-D6 vs Dd2-Pol δ parent) it was 1.1; in experiment [1] (clone 1-D7 vs Dd2-Pol δ parent), 1.0; in experiment [1] (clone 1-F3 vs Dd2-Pol δ parent), 1.2; in experiment [1] (clone 2-C4 vs Dd2-Pol δ parent), 0.9; in experiment [1] (clone 2-F5 vs Dd2-Pol δ parent), 1.0. For the same compound, the Fold change in experiment [1] (clone 3-C3 vs Dd2-Pol δ parent) and in experiment [1] (clone 3-C5 vs Dd2-Pol δ parent) was 1.0 throughout. Also, the “fractional inhibitory concentration (FIC)” value with P. falciparum (combination with NPDG-F) is given as “highest FIC values overall”. Moreover, in the experiment with P. falciparum (single compounds, dose–response, Fig. 3A, read-out: Mean IC50 ± SEM), the IC50 came out at 58 ± 17 nM.

As usually defined, the EC50 is the concentration that produces a half-maximal response. As a reminder, the Kd is the constant that tells how readily two partners part at equilibrium. As a reminder, the IC50 is the point on the concentration scale where inhibition reaches its midpoint.
